Data: US8163702B2, “Treatment of melanoma” (SciClone Pharmaceuticals, Inc., priority 2006, dated 2012)

Assays:
thymocyte and lymphocyte = conditions: cited from earlier work
B16 cell line = test: In vitro cell sensitivity: cell proliferation and viability by trypan blue dye exclusion; format: cell-based, murine
Experimental: In vitro cell sensitivity studies were performed on a B16 cell line. Subconfluent melanoma cells were harvested, suspended in complete medium and seeded into 24-well plates (10^5 cells in a final volume of 2 ml/well). The cells were treated in triplicate wells for 24, 48 or 72 hr of culture with graded concentrations of SCV-07 ranging from 0.1 to 100 μg/ml. Cell proliferation and viability were determined by the trypan blue dye exclusion method by manually counting the cells with a hemocytometer.

[1] = 5-FU-immune-suppressed animals; immunization with sheep red blood cells; cited from earlier work
B16 melanoma = B16 melanoma tumor growth, tumor weight and survival in C57/Bl6 mice, i.p. treatment (Example 1); format: in vivo; conditions: for animals surviving: After 26 days
Experimental: Tumors were induced by injecting 1×10^6 B16 melanoma cells subcutaneously in the hind leg of C57/Bl6 syngeneic mice. Mice were randomized into 5 groups of 10 animals and treated with SCV-07 at doses of 0.001, 0.01, or 0.10 mg/kg administered daily i.p. for 3 consecutive days for 2 weeks, starting 3 days after tumor implantation. Control groups were treated with saline or dacarbazine (DTIC) at a dose of 50 mg/kg i.p. for 3 days. Tumor growth was assessed every 3 days by a caliper and tumor weight was measured upon death.
Mice were injected with B16 melanoma cells and divided into 5 groups of 10 mice each. Control mice were given injections of saline or dacarbazine (DTIC). The effects of different doses of SCV-07 were examined with respect to tumor growth rate and survival time.

T helper cells = conditions: previous studies; cited from earlier work
bone marrow cells = conditions: cited from earlier work

SMILES: N[C@H](CCC(=O)N[C@@H](Cc1c[nH]c2ccccc12)C(=O)O)C(=O)O [SCV-07, γ-D-glutamyl-L-tryptophan]
- Con-A-induced thymocyte and lymphocyte proliferation (thymocyte and lymphocyte): increases
- effect on cell growth by direct cell counts (B16 cell line; 24 and 48 hrs of culture, 0.1 to 100 μg/ml): dose-dependent inhibitory effect on cell growth
- effect on number of viable cells (B16 cell line; higher concentration (100 μg/ml)): toxic effects with a dramatic decrease in the number of viable cells
- effect on cell growth (B16 cell line; low concentration): substantially cytostatic
- immunostimulatory effect [1]: strong immunostimulatory effect
- animals surviving (B16 melanoma; SCV-07 highest dose (0.10 mg/kg i.p.)): 21%
- animals surviving (B16 melanoma; SCV-07 lower doses): no surviving animals
- MEAN TUMOR VOLUME (B16 melanoma; DAY 10 after tumor inoculation, SCV-07 0.001 mg/kg i.p.): 540 ± 180 mm^3
- MEAN TUMOR VOLUME (B16 melanoma; DAY 10 after tumor inoculation, SCV-07 0.01 mg/kg i.p.): 490 ± 120 mm^3
- MEAN TUMOR VOLUME (B16 melanoma; DAY 10 after tumor inoculation, SCV-07 0.10 mg/kg i.p.): 420 ± 150 mm^3
- MEAN TUMOR VOLUME (B16 melanoma; DAY 17 after tumor inoculation, SCV-07 0.001 mg/kg i.p.): 625 ± 270 mm^3
- MEAN TUMOR VOLUME (B16 melanoma; DAY 17 after tumor inoculation, SCV-07 0.01 mg/kg i.p.): 581 ± 210 mm^3
- MEAN TUMOR VOLUME (B16 melanoma; DAY 17 after tumor inoculation, SCV-07 0.10 mg/kg i.p.): 495 ± 190 mm^3
- MEAN TUMOR VOLUME (B16 melanoma; DAY 24 after tumor inoculation, SCV-07 0.001 mg/kg i.p.): 880 ± 240 mm^3
- MEAN TUMOR VOLUME (B16 melanoma; DAY 24 after tumor inoculation, SCV-07 0.01 mg/kg i.p.): 720 ± 150 mm^3
- MEAN TUMOR VOLUME (B16 melanoma; DAY 24 after tumor inoculation, SCV-07 0.10 mg/kg i.p.): 533 ± 170 mm^3
- tumor growth (B16 melanoma; SCV-07 0.001, 0.01, 0.10 mg/kg i.p.): inhibited tumor growth in a dose-dependent manner
- mean tumor weight lower (B16 melanoma; highest dose of SCV-07 (0.10 mg/kg i.p.), weight upon death): 35%
- mean tumor weight lower (B16 melanoma; lower doses of SCV-07 (0.001, 0.01 mg/kg i.p.)): 20%
- IFN-γ production by thymic and spleen cells and circulating level in serum (T helper cells): increased
- T helper cell polarization (T helper cells): stimulates a shift of T helper cells towards a TH1-like immune response
- expression of Thy-1.2 (bone marrow cells): stimulates
